Assay results taken from patent publication US20150141478A1, “SERIES OF DRUGS USING PHOTOFRIN TO CATALYZE DECOMPOSITION OF HYDROGEN PEROXIDE” (Wuxi Zhaozhen Radiation Technology Co., Ltd., priority 2012, published 2015).

Experiments:
[1] = tested on: plaques in thoracic aorta; details: 5-ALA 80 mg/kg i.p., then i.v. substrate (carbamide peroxide), 5Gy once, 7th day after therapy
Experimental: (1) Male New Zealand rabbits, bodyweight 3-4 kg, were fed with diet containing 1% cholesterol and pork fat, raised for 11 weeks, until atherosclerotic plaques occurred at vessels of eye ground at both sides and artery.
(2) The rabbits were anesthetized with ketamine and thiopental sodium.
(3) Target regions of plaques at artery to be treated were determined by total body CT plain scanning and CTA enhancing.
(4) Target regions of plaques at artery to be treated were sketched by a therapy planning system, to formulate a therapeutical plan suitable for RCDT, using GTV dose of up to 5.0Gy, irradiated once. Normal feeding was restored during the procedure.
(5) It was 2 h before the irradiation that 5-ALA (80 mg/kg in saline 5 ml) was intraperitoneally injected, carbamide peroxide (injection containing H2O2, 80 mg/kg) in 5 ml of saline was slowly injected via ear vein immediately before the irradiation, and the therapeutical plan was carried out immediately after the injection of carbamide peroxide.
(6) It was 5-7 days after irradiation the CTA was reexamined, and the situations of elimination of vascular plaques were recorded.
The plaques are used as target regions, positioned, and radiotherapy plan is formulated. It is 1.5 h after intraperitoneal injection of 5-ALA (80 mg/kg of body weight) that a substrate is intravenously dripped, the vascular plaques are irradiated with 5Gy once. […]

[2] = Suppression of the decomposition of H2O2 catalysed by haematoporphyrin and .OH, using .OH scavengers; details: 1.5% H2O2, 20% DMSO, 15% ethanol, 5% mannitol
Experimental: (4) 15 uM Haematoporphyrin derivative (HPD) was added, or 15 uM acidified porphyrin (Protoporphyrin IX, PpIX) was added.
(5) The vacuum bottles were irradiated with 10 MeV X-ray for about 1 min, dose of 5Gy, to start the decomposition reaction of H2O2. The reaction was terminated by stopping irradiation.

[3] = Decomposition of H2O2 catalysed by photofrin alone under weak alkali, 1O2 measured by DMA fluorescence; details: 15 uM, H2O2 lower than or equal to 0.15%, 25° C., 8 h, no activation
Experimental: (1) 10 ml vacuum bottles were used, and the vacuum bottles were totally sealed with Kodak photographic film light protecting paper.
(2) H2O2 solutions (in DMF: H2O=1:5) with different concentrations were added to the sealed vacuum bottles.
(3) 5 uM 9,10-dimethylanthracene (DMA) was added. DMA was a kind of ^1O2 specific indicator (probe), DMA had intensive fluorescence property, after binding to ^1O2, endorperoxide without fluorescence property was formed, so that the amount of the generated ^1O2 is in inverse proportion with the content of DMA.
(4) 15 uM Haematoporphyrin derivative was added, and reacted at 25° C. for 8 h.

Compound | inhibition of 1O2 yield [2] [%] | other results
NCC(=O)CCC(=O)O [5-ALA] |  | plaques in thoracic aorta by CTA visualization and MR [1]: completely disappeared
C[S+](C)[O-] [DMSO] | 75.1 | 
CCO [ethanol] | 43.0 | 
OC[C@@H](O)[C@@H](O)[C@H](O)[C@H](O)CO [mannitol] | 17.7 | 
Haematoporphyrin derivative |  | catalysis of the decomposition reaction of H2O2 to generate 1O2 [3]: cannot be catalyzed
